Experimental findings from patent US9334264B2, “NAMPT inhibitors” (AbbVie Inc., priority 2012, dated 2016) are described below.

As a reminder, the IC50 is the midpoint of a concentration-inhibition curve.

For experiment [1], the target named is NAMPT (human, recombinant, C-terminally His-tagged) (Homo sapiens, UniProt P43490). The experiment can be described thus: Time-Resolved Fluorescence Resonance Energy Transfer (TR-FRET) Binding Assay of NAMPT. As to conditions: absence of substrates; 6.8 nM NAMPT, 200 nM probe, equilibrated 3 hours. An outline of the steps:
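Displacement of 200 nM Oregon Green-labelled nicotinamide-competitive probe from 6.8 nM His-tagged NAMPT, detected with 1 nM Tb-anti-His; HEPES pH 7.5, 2% DMSO, 3 h room temperature. Em520/Em495 ratios normalized and fit four-parameter logistic for IC50.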

Another experiment deals with NAMPT (Homo sapiens, UniProt P43490). In words: Time-Resolved Fluorescence Resonance Energy Transfer (TR-FRET) Binding Assay of NAMPT with PRPP. As to conditions: 200 μM PRPP and 2.5 mM ATP; 2 nM NAMPT, 2 nM probe, equilibrated 16 hours. An outline of the steps: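 Binding was measured by TR-FRET with 2 nM NAMPT, 2 nM probe and 1 nM Tb-anti-His antibody in the presence of 200 μM PRPP and 2.5 mM ATP, with 2% DMSO. Equilibration lasted 16 h before reading, allowing possible enzymatic modification of compounds.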
For orientation: TR-FRET usually uses a lanthanide donor and a delayed reading to cut background.

NAMPT, sequence (P43490 whole entry): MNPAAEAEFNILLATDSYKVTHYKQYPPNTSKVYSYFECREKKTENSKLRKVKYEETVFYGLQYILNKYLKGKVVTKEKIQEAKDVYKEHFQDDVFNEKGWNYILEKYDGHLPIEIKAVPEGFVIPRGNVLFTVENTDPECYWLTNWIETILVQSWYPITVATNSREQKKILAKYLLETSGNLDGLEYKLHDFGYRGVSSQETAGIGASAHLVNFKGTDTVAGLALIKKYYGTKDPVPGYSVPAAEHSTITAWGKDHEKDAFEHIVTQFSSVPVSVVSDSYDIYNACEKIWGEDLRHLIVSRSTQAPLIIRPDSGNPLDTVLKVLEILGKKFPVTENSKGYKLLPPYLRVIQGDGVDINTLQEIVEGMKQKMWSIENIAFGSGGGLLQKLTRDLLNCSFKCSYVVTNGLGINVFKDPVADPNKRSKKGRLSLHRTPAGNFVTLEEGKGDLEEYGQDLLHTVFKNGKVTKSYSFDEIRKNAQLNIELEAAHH
NAMPT (human, recombinant, C-terminally His-tagged), sequence (P43490 whole entry): as above

`COCCC(=O)N(CCc1cccc(OC)c1)c1ncc(C(=O)NCCCn2ccnc2)s1` [Example 107, N-[3-(1H-imidazol-1-yl)propyl]-2-{[2-(3-methoxyphenyl)ethyl](3-methoxypropanoyl)amino}-1,3-thiazole-5-carboxamide acetate (1:1)]: the results for the IC50 (in experiment [1]; on NAMPT) were 0.814 µM and 2.24 nM, respectively.
Consider `COCCC(=O)N(CCc1ccccc1F)c1ncc(C(=O)NCCCn2ccnc2)s1` [Example 108, 2-{[2-(2-fluorophenyl)ethyl](3-methoxypropanoyl)amino}-N-[3-(1H-imidazol-1-yl)propyl]-1,3-thiazole-5-carboxamide acetate (1:1)], for which the values for the IC50 (in experiment [1]; on NAMPT) were 1.45 µM and 1.61 nM, respectively.
Take `COCCC(=O)N(CC(O)c1ccc(OC)cc1)c1ncc(C(=O)NCCCn2ccnc2)s1` (stereo not drawn) [Example 109, 2-{[2-hydroxy-2-(4-methoxyphenyl)ethyl](3-methoxypropanoyl)amino}-N-[3-(1H-imidazol-1-yl)propyl]-1,3-thiazole-5-carboxamide acetate (1:1)]: the half-maximal inhibitory concentration (IC50) is above 10 µM in experiment [1] and 3.74 nM on NAMPT.
`COCCC(=O)N(c1ncc(C(=O)NCCCn2ccnc2)s1)C(C)c1ccccn1` (stereo not drawn) [Example 110, N-[3-(1H-imidazol-1-yl)propyl]-2-{(3-methoxypropanoyl)[1-(pyridin-2-yl)ethyl]amino}-1,3-thiazole-5-carboxamide]: the concentration for half-maximal inhibition (IC50) in experiment [1] is above 10 µM; at NAMPT, 23.2 nM.
As to `COCCC(=O)N(Cc1cnn(C)c1)c1ncc(C(=O)NCCCn2ccnc2)s1` [Example 111, N-[3-(1H-imidazol-1-yl)propyl]-2-{(3-methoxypropanoyl)[(1-methyl-1H-pyrazol-4-yl)methyl]amino}-1,3-thiazole-5-carboxamide], the IC50 was above 10 µM in experiment [1] and 5.87 nM on NAMPT.
As to `COCCC(=O)N(Cc1c(F)cccc1F)c1ncc(C(=O)NCCCn2ccnc2)s1` [Example 112, 2-[(2,6-difluorobenzyl)(3-methoxypropanoyl)amino]-N-[3-(1H-imidazol-1-yl)propyl]-1,3-thiazole-5-carboxamide], the IC50 in experiment [1] is 3.68 µM; on NAMPT, 2.08 nM.
`COCCC(=O)N(Cc1ccc(C)nc1)c1ncc(C(=O)NCCCn2ccnc2)s1` [Example 113, N-[3-(1H-imidazol-1-yl)propyl]-2-{(3-methoxypropanoyl)[(6-methylpyridin-3-yl)methyl]amino}-1,3-thiazole-5-carboxamide]: the IC50 stood at 4.99 µM in experiment [1] and 6.76 nM on NAMPT.
The corresponding values for `COCCC(=O)N(Cc1ccc(Cl)cc1)c1ncc(C(=O)NCCCn2ccnc2)s1` [Example 114, 2-[(4-chlorobenzyl)(3-methoxypropanoyl)amino]-N-[3-(1H-imidazol-1-yl)propyl]-1,3-thiazole-5-carboxamide] are 1.99 µM and 2.31 nM.
For `COCCC(=O)N(Cc1cnc(C)cn1)c1ncc(C(=O)NCCCn2ccnc2)s1` [Example 115, N-[3-(1H-imidazol-1-yl)propyl]-2-{(3-methoxypropanoyl)[(5-methylpyrazin-2-yl)methyl]amino}-1,3-thiazole-5-carboxamide], in that order: 1.42 µM and 3.6 nM.
The corresponding values for `COCCC(=O)N(Cc1ccc(C)cn1)c1ncc(C(=O)NCCCn2ccnc2)s1` [Example 117, N-[3-(1H-imidazol-1-yl)propyl]-2-{(3-methoxypropanoyl)[(5-methylpyridin-2-yl)methyl]amino}-1,3-thiazole-5-carboxamide] are 1.25 µM and 3.02 nM.
On to `COCCC(=O)N(Cc1ccccc1C)c1ncc(C(=O)NCCCn2ccnc2)s1` [Example 119, N-[3-(1H-imidazol-1-yl)propyl]-2-[(3-methoxypropanoyl)(2-methylbenzyl)amino]-1,3-thiazole-5-carboxamide], for which the figures for the IC50 (in experiment [1]; on NAMPT) were 4.57 µM and 1.89 nM, respectively.
For `COCCC(=O)N(Cc1cccc(C)c1)c1ncc(C(=O)NCCCn2ccnc2)s1` [Example 120, N-[3-(1H-imidazol-1-yl)propyl]-2-[(3-methoxypropanoyl)(3-methylbenzyl)amino]-1,3-thiazole-5-carboxamide], the IC50 turned out to be 3.78 µM in experiment [1] and 2.29 nM on NAMPT.
The corresponding values for `COCCC(=O)N(Cc1ccccn1)c1ncc(C(=O)NCCCn2ccnc2)s1` [Example 121, N-[3-(1H-imidazol-1-yl)propyl]-2-[(3-methoxypropanoyl)(pyridin-2-ylmethyl)amino]-1,3-thiazole-5-carboxamide] are above 10 µM and 9.25 nM.
With `COCCC(=O)N(Cc1cccnc1)c1ncc(C(=O)NCCCn2ccnc2)s1` [Example 122, N-[3-(1H-imidazol-1-yl)propyl]-2-[(3-methoxypropanoyl)(pyridin-3-ylmethyl)amino]-1,3-thiazole-5-carboxamide], the values for the half-maximal inhibitory concentration (IC50) (in experiment [1]; on NAMPT) were above 10 µM and 4.31 nM, respectively.
As to `CC(C)OCCNC(=O)N(Cc1ccc(C#N)cc1)c1ncc(C(=O)NCCCn2ccnc2)s1` [Example 123, 2-[(4-cyanobenzyl){[2-(propan-2-yloxy)ethyl]carbamoyl}amino]-N-[3-(1H-imidazol-1-yl)propyl]-1,3-thiazole-5-carboxamide], the IC50 worked out at 3.82 µM in experiment [1] and 0.631 nM on NAMPT.
For `COC(C)CNC(=O)N(Cc1ccc(C#N)cc1)c1ncc(C(=O)NCCCn2ccnc2)s1` (stereo not drawn) [Example 124, 2-{(4-cyanobenzyl)[(2-methoxypropyl)carbamoyl]amino}-N-[3-(1H-imidazol-1-yl)propyl]-1,3-thiazole-5-carboxamide], in that order: 3.52 µM and 0.624 nM.
As to `N#Cc1ccc(CN(C(=O)NCCOCCO)c2ncc(C(=O)NCCCn3ccnc3)s2)cc1` [Example 125, 2-[(4-cyanobenzyl){[2-(2-hydroxyethoxy)ethyl]carbamoyl}amino]-N-[3-(1H-imidazol-1-yl)propyl]-1,3-thiazole-5-carboxamide], the half-inhibitory concentration (IC50) in experiment [1] was above 10 µM; on NAMPT, 0.712 nM.
For `CC(C)OCCCNC(=O)N(Cc1ccc(C#N)cc1)c1ncc(C(=O)NCCCn2ccnc2)s1` [Example 126, 2-[(4-cyanobenzyl){[3-(propan-2-yloxy)propyl]carbamoyl}amino]-N-[3-(1H-imidazol-1-yl)propyl]-1,3-thiazole-5-carboxamide], in that order: 4.18 µM and 1.3 nM.
Take `CC(C)(CO)CNC(=O)N(Cc1ccc(C#N)cc1)c1ncc(C(=O)NCCCn2ccnc2)s1` [Example 127, 2-{(4-cyanobenzyl)[(3-hydroxy-2,2-dimethylpropyl)carbamoyl]amino}-N-[3-(1H-imidazol-1-yl)propyl]-1,3-thiazole-5-carboxamide]: the IC50 stood at 3.18 µM in experiment [1] and 0.533 nM at NAMPT.
As for `CC(O)CNC(=O)N(Cc1ccc(C#N)cc1)c1ncc(C(=O)NCCCn2ccnc2)s1` (stereo not drawn) [Example 128, 2-{(4-cyanobenzyl)[(2-hydroxypropyl)carbamoyl]amino}-N-[3-(1H-imidazol-1-yl)propyl]-1,3-thiazole-5-carboxamide], the IC50 in experiment [1] is above 10 µM; on NAMPT, 0.727 nM.
For the compound `CC(CO)NC(=O)N(Cc1ccc(C#N)cc1)c1ncc(C(=O)NCCCn2ccnc2)s1` (stereo not drawn) [Example 129, 2-{(4-cyanobenzyl)[(1-hydroxypropan-2-yl)carbamoyl]amino}-N-[3-(1H-imidazol-1-yl)propyl]-1,3-thiazole-5-carboxamide], the results for the IC50 (in experiment [1]; on NAMPT) were above 10 µM and 1.16 nM, respectively.
`N#Cc1ccc(CN(C(=O)NCCCO)c2ncc(C(=O)NCCCn3ccnc3)s2)cc1` [Example 130, 2-{(4-cyanobenzyl)[(3-hydroxypropyl)carbamoyl]amino}-N-[3-(1H-imidazol-1-yl)propyl]-1,3-thiazole-5-carboxamide]: the values for the IC50 (in experiment [1]; on NAMPT) were above 10 µM and 1.11 nM, respectively.
The corresponding values for `C=C[C@@H](CO)NC(=O)N(Cc1ccc(C#N)cc1)c1ncc(C(=O)NCCCn2ccnc2)s1` [Example 131, 2-[(4-cyanobenzyl){[(2S)-1-hydroxybut-3-en-2-yl]carbamoyl}amino]-N-[3-(1H-imidazol-1-yl)propyl]-1,3-thiazole-5-carboxamide] are 4.78 µM and 0.743 nM.
In the case of `N#Cc1ccc(CN(C(=O)NCCCCO)c2ncc(C(=O)NCCCn3ccnc3)s2)cc1` [Example 132, 2-{(4-cyanobenzyl)[(4-hydroxybutyl)carbamoyl]amino}-N-[3-(1H-imidazol-1-yl)propyl]-1,3-thiazole-5-carboxamide], the values for the IC50 (in experiment [1]; on NAMPT) were 4.85 µM and 1.02 nM, respectively.
The corresponding values for `CC(C)CCN(C(=O)[C@@H](C)Oc1ccccc1)c1ncc(C(=O)NCCCn2ccnc2)s1` [Example 133, N-[3-(1H-imidazol-1-yl)propyl]-2-{(3-methylbutyl)[(2R)-2-phenoxypropanoyl]amino}-1,3-thiazole-5-carboxamide] are 0.0589 µM and 0.527 nM.
For `CC(C)CCN(C(=O)[C@H](C)Oc1ccccc1)c1ncc(C(=O)NCCCn2ccnc2)s1` [Example 134, N-[3-(1H-imidazol-1-yl)propyl]-2-{(3-methylbutyl)[(2S)-2-phenoxypropanoyl]amino}-1,3-thiazole-5-carboxamide], in that order: 0.2 µM and 0.617 nM.
For `Cc1cc(C(=O)N(CCC(C)C)c2ncc(C(=O)NCCCn3ccnc3)s2)no1` [Example 135, N-(5-{[3-(1H-imidazol-1-yl)propyl]carbamoyl}-1,3-thiazol-2-yl)-5-methyl-N-(3-methylbutyl)-1,2-oxazole-3-carboxamide], in that order: 0.0937 µM and 0.169 nM.
